Assay results: ChEMBL document CHEMBL4190372, “Discovery of a Novel Oral Glucocorticoid Receptor Modulator (AZD9567) with Improved Side Effect Profile” (J Med Chem, 2018)
In brackets after ≈: the same amount, converted by molar mass.

Legend:
Glucocorticoid receptor [1] = molecular target: T1, Glucocorticoid receptor (Homo sapiens, UniProt P04150)
T1 sequence (P04150 whole entry): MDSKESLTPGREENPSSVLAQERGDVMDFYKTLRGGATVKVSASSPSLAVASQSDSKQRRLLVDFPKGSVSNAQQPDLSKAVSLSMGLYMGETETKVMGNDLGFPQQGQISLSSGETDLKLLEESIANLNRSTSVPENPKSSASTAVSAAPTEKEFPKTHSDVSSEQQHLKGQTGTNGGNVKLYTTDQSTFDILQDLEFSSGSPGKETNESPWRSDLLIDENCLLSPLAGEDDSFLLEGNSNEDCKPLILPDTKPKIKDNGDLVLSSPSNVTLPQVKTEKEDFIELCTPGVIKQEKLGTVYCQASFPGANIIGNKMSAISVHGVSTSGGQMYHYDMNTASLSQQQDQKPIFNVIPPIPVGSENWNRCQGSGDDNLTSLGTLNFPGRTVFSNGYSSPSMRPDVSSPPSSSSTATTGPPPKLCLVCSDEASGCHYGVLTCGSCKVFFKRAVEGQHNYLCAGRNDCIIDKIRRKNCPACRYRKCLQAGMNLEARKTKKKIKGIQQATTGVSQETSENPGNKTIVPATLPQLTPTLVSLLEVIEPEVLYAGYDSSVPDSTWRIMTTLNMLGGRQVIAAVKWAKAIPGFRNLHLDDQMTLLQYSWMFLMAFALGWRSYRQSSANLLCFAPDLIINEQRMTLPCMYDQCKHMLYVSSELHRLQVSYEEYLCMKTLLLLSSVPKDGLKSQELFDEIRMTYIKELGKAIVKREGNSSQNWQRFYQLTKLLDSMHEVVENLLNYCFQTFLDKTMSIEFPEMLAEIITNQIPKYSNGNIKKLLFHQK
Description: Transactivation activity at glucocorticoid receptor (unknown origin) expressed in human ChaGoK1 cells incubated for 24 hrs by beta-galactosidase reporter gene assay

Glucocorticoid receptor [2] = molecular target: T1, Glucocorticoid receptor; remark: listed apart in the source
Description: Transrepression activity at glucocorticoid receptor (unknown origin) expressed in human ChaGoK1 cells assessed as inhibition of PMA-stimulated gene expression incubated for 24 hrs by beta-galactosidase reporter gene assay

[3] = Intrinsic clearance in rat hepatocytes assessed per million cells; assay type: ADME, cell-based, Hepatocyte; conditions: read-out: CLH
[4] = Aqueous solubility of the compound; assay type: physicochemical
[5] = Clearance in rat; assay type: ADME, organism-based; conditions: in vivo
Glucocorticoid receptor [6] = molecular target: T1, Glucocorticoid receptor; experiment: Displacement of fluormone RED from human full length glucocorticoid receptor after 4 hrs by fluorescence polarization assay
Hepatocyte [7] = experiment: Stability in rat hepatocytes; assay type: ADME, cell-based
Hepatocyte [8] = experiment: Stability in human hepatocytes; assay type: ADME, cell-based
Glucocorticoid receptor [9] = molecular target: T1, Glucocorticoid receptor; experiment: Antagonist activity at glucocorticoid receptor (unknown origin) expressed in human ChaGoK1 cells assessed as inhibition of dexamethasone induced transactivation incubated for 24 hrs by beta-galactosidase reporter gene assay; assay type: cell-based
Glucocorticoid receptor [10] = molecular target: T1, Glucocorticoid receptor; remark: listed apart in the source
Description: (§1) Transrepression of GR in human whole blood assessed as inhibition of LPS-induced TNF-alpha release preincubated for 45 mins followed by LPS addition after 18 hrs by AlphaLISA method

[11] = molecular target: T2, Glucocorticoid receptor (Homo sapiens) (UniProt P04150)
T2 sequence (whole entry): T1 sequence (P04150 whole entry)
Description: Transrepression of GR in cryopreserved human fetal osteoblasts assessed as inhibition of OPG mRNA expression after 4 hrs by RT-qPCR analysis

Glucocorticoid receptor [12] = molecular target: T1, Glucocorticoid receptor; conditions: blood
Description: Therapeutic index, ratio of fIC20 for transrepression of GR in cryopreserved human fetal osteoblasts assessed as inhibition of OPG mRNA expression to fIC30 for transrepression of GR in human whole blood assessed as inhibition of LPS-induced TNF-alpha release

[13] = molecular target: T2, Glucocorticoid receptor (Homo sapiens); remark: listed apart in the source
Description: as §1

EC50 (Glucocorticoid receptor [1]) [µM] | IC50 (Glucocorticoid receptor [2]) [µM] | solubility ([4]; aqueous, read-out: solubility) [µM] | IC50 (Glucocorticoid receptor [6]) [µM] | IC50 (Glucocorticoid receptor [9]) [µM] | Structure (SMILES) | other results
0.043 | 0.016 | 85 (≈ 34.8 µg/mL) | 0.0071 | – | COc1ccc([C@@H](Oc2ccc(C#N)cc2Cl)[C@H](C)NC(=O)C(C)(F)F)cn1 | hepatocyte CLint [3]: 93 µL/min/1e6 cells; clearance [5]: 1.32 L/h/kg
– | – | 1 (≈ 0.461 µg/mL) | – | – | COc1ccc([C@@H](Oc2ccc3c(cnn3-c3ccc(F)cc3)c2)[C@H](C)NC(=O)C2CC2)cn1 | –
– | – | – | – | – | CCS(=O)(=O)c1cc2cc(C[C@](O)(CC(C)(C)c3ccc(F)cc3C(N)=O)C(F)(F)F)[nH]c2cn1 [BI 653048] | solubility ([4]; buffer): 160 µM (≈ 82.5 µg/mL)
0.023 | 0.0025 | 97 (≈ 45.5 µg/mL) | 0.0024 | – | C[C@H](NC(=O)C(F)(F)F)[C@H](Oc1ccc(C#N)cc1Br)c1cnc(C2CC2)nc1 | Stability (Hepatocyte [7]): Stable; Stability (Hepatocyte [8]): Stable
– | 0.07 | 290 (≈ 109 µg/mL) | < 0.0068 | – | COc1ccc([C@@H](Oc2ccc(C#N)cc2)[C@H](C)NC(=O)C(C)(F)F)cn1 | –
0.029 | 0.0033 | 5.8 (≈ 2.73 µg/mL) | 0.052 | 0.131 | CC(C)[C@H](NC(=O)C(C)(F)F)[C@H](Oc1ccc2c(cnn2-c2cscn2)c1)c1ccccc1 | –
0.0039 | < 0.00034 | < 0.08 | < 0.014 | 0.013 | CC(C)[C@H](NC(=O)C(C)(F)F)[C@H](Oc1ccc2c(cnn2-c2ccc(F)cc2)c1)c1ccccc1 | –
0.021 | 0.0078 | 430 (≈ 181 µg/mL) | < 0.0041 | – | C[C@H](NC(=O)C(C)(F)F)[C@H](Oc1ccc(C#N)cc1Cl)c1cnc(C2CC2)nc1 | hepatocyte CLint [3]: 3.4 µL/min/1e6 cells; clearance [5]: 0.438 L/h/kg
0.0035 | 0.00057 | < 0.01 | 0.018 | 0.07 | COc1ccc([C@@H](Oc2ccc3c(cnn3-c3ccc(F)cc3)c2)[C@@H](NC(=O)C(C)(F)F)C(C)C)cn1 | –
0.0048 | 0.00069 | 3.2 (≈ 1.58 µg/mL) | < 0.0072 | 0.0089 | Cc1ncccc1NC(=O)c1ccc2c(c1)CC[C@@H]1C[C@@](O)(C(F)(F)F)CC[C@@]21Cc1ccccc1 [DAGROCORAT] | IC50 (Glucocorticoid receptor [10]): 0.035 µM; fIC20 [11]: 0.0667 nM; TI (Glucocorticoid receptor [12]): 0.029; fIC30 [13]: 2.3 nM
– | – | 250 (≈ 124 µg/mL) | – | – | CC(O)[C@H](NC(=O)C(C)(F)F)[C@H](Oc1ccc2c(cnn2-c2ccc(=O)n(C)c2)c1)c1ccccc1 (stereo not given in full) | –
0.027 | 0.011 | 160 (≈ 79.1 µg/mL) | 0.0061 | – | CC(C)[C@H](NC(=O)C(C)(F)F)[C@H](Oc1ccc2c(cnn2-c2cccn(C)c2=O)c1)c1ccccc1 | –
– | – | 48 (≈ 23.6 µg/mL) | – | – | Cn1cc(-n2ncc3cc(O[C@H](c4ccccc4)[C@@H](NC(=O)C(C)(F)F)C4CC4)ccc32)ccc1=O | –
– | 0.039 | 0.96 (≈ 0.452 µg/mL) | – | – | CC(C)[C@H](NC(=O)C(C)(F)F)[C@H](Oc1ccc2c(cnn2-c2ccns2)c1)c1ccccc1 | –
– | – | < 0.01 | – | – | COc1ccc([C@@H](Oc2ccc3c(cnn3-c3ccc(F)cc3)c2)[C@H](COC(C)(C)C)NC(=O)C(C)(F)F)cn1 | –
– | – | 51 (≈ 24.5 µg/mL) | – | – | CC[C@H](NC(=O)C(C)(F)F)[C@H](Oc1ccc2c(cnn2-c2ccc(=O)n(C)c2)c1)c1ccccc1 | –
– | – | 6.9 (≈ 2.96 µg/mL) | – | – | CC#C[C@]1(O)CC[C@H]2[C@@H]3CCC4=CC(=O)CCC4=C3[C@@H](c3ccc(N(C)C)cc3)C[C@@]21C [MIFEPRISTONE] | –

EC50 (Glucocorticoid receptor [1]) [µM] | IC50 (Glucocorticoid receptor [2]) [µM] | solubility ([4]; aqueous, read-out: solubility) [µM] | IC50 (Glucocorticoid receptor [6]) [µM] | IC50 (Glucocorticoid receptor [9]) [µM] | Structure (SMILES) | other results
– | 0.021 | 86 (≈ 42.6 µg/mL) | 0.014 | 0.221 | N#Cc1ccc(O[C@H](c2cnc(C3CC3)nc2)[C@@H](NC(=O)C(F)(F)F)C2CC2)c(Br)c1 | IC50 (Glucocorticoid receptor [10]): 0.34 µM; fIC20 [11]: 0.5 nM; Stability (Hepatocyte [7]): Stable; TI (Glucocorticoid receptor [12]): 0.014; Stability (Hepatocyte [8]): Stable; fIC30 [13]: 36 nM
– | – | 22 (≈ 10.9 µg/mL) | – | – | CCC[C@H](NC(=O)C(C)(F)F)[C@H](Oc1ccc2c(cnn2-c2ccc(=O)n(C)c2)c1)c1ccccc1 | –
0.087 | 0.051 | 5.1 (≈ 2.53 µg/mL) | – | – | CC(C)[C@H](NC(=O)C(C)(F)F)[C@H](Oc1ccc2c(cnn2-c2cnc(=O)n(C)c2)c1)c1ccccc1 | –
0.018 | 0.0056 | 14 (≈ 7.18 µg/mL) | < 0.0032 | 0.301 | CC(C)[C@H](NC(=O)C(C)(F)F)[C@H](Oc1ccc2c(cnn2-c2cc(F)c(=O)n(C)c2)c1)c1ccccc1 | –
0.0029 | 0.0017 | 10 (≈ 5.29 µg/mL) | 0.0026 | 0.324 | CC(C)[C@H](NC(=O)C(C)(F)F)[C@H](Oc1ccc2c(cnn2-c2ccc(=O)n(C)c2)c1)c1cccc(Cl)c1 | –
0.0087 | 0.002 | < 0.1 | 0.032 | 0.092 | COc1ccc([C@@H](Oc2ccc3c(cnn3-c3ccc(F)cc3)c2)[C@H](Cc2ccccc2)NC(=O)C(C)(F)F)cn1 | –
0.054 | 0.0096 | 110 (≈ 53.2 µg/mL) | 0.0093 | 0.56 | CC[C@H](NC(=O)C(F)(F)F)[C@H](Oc1ccc(C#N)cc1Br)c1cnc(C2CC2)nc1 | Stability (Hepatocyte [7]): Stable; Stability (Hepatocyte [8]): Stable
0.0056 | 0.003 | 9.6 (≈ 5.12 µg/mL) | < 0.003 | 0.114 | CC(C)[C@H](NC(=O)C(F)(F)F)[C@H](Oc1ccc2c(cnn2-c2ccc(=O)n(C)c2)c1)c1cccc(Cl)c1 | IC50 (Glucocorticoid receptor [10]): 0.42 µM; fIC20 [11]: 0.92 nM; TI (Glucocorticoid receptor [12]): 0.58; fIC30 [13]: 1.6 nM
0.0064 | 0.0011 | 110 (≈ 51.2 µg/mL) | 0.0024 | – | C[C@H](NC(=O)C(C)(F)F)[C@H](Oc1ccc(C#N)cc1Br)c1cnc(C2CC2)nc1 | Stability (Hepatocyte [7]): Stable; Stability (Hepatocyte [8]): Stable
– | – | > 730 | 0.042 | – | N#Cc1ccc(O[C@H](c2cnc(C3CC3)nc2)[C@H](CO)NC(=O)C(F)(F)F)c(Br)c1 | –
0.0023 | 0.0016 | 140 (≈ 65.3 µg/mL) | – | – | C[C@H](NC(=O)C(C)(F)F)[C@H](Oc1ccc2c(cnn2-c2ccc(=O)n(C)c2)c1)c1ccccc1 | –
– | – | 20 (≈ 10.1 µg/mL) | – | – | Cn1cc(-n2ncc3cc(O[C@H](c4ccccc4)[C@H](CC4CC4)NC(=O)C(C)(F)F)ccc32)ccc1=O | –
0.0054 | < 0.00042 | < 0.1 | 0.016 | 0.025 | CC(C)[C@H](NC(=O)C(F)(F)F)[C@H](Oc1ccc2c(cnn2-c2ccc(F)cc2)c1)c1ccccc1 | –
0.0027 | 0.0022 | 21 (≈ 11.1 µg/mL) | 0.0047 | 0.023 | CC(C)[C@H](NC(=O)C(C)(F)F)[C@H](Oc1ccc2c(cnn2-c2ccc(=O)n(C)c2)c1)c1cc(F)cc(F)c1 | IC50 (Glucocorticoid receptor [10]): 0.12 µM; fIC20 [11]: 0.12 nM; TI (Glucocorticoid receptor [12]): 0.17; fIC30 [13]: 0.7 nM
– | – | < 0.5 | 0.057 | – | COc1ccc(-n2ncc3cc(O[C@H](c4ccccc4)[C@@H](NC(=O)C(C)(F)F)C(C)C)ccc32)cn1 | –
– | – | 18 (≈ 9.74 µg/mL) | 0.16 | 0.516 | CC(C)(C)OC[C@H](NC(=O)C(F)(F)F)[C@H](Oc1ccc(C#N)cc1Br)c1cnc(C2CC2)nc1 | Stability (Hepatocyte [7]): Stable; Stability (Hepatocyte [8]): Stable
0.11 | 0.027 | 11 (≈ 5.72 µg/mL) | 0.0072 | – | CC(C)[C@H](NC(=O)C(C)(F)F)[C@H](Oc1ccc2c(cnn2-c2cc(C#N)c(=O)n(C)c2)c1)c1ccccc1 | –
